Results taken from patent US12023318B2, “Therapy for Inflammatory Linear Verrucous Epidermal Nevus (ILVEN)” (UCL Business Ltd, priority 2018, dated 2024).

Tested on: Inflammatory Linear Verrucous Epidermal Nevus (ILVEN)
Assay: Topical cholesterol/simvastatin treatment of patients with ILVEN
Type: in vivo, human
Settings: patient 9, localised ILVEN left arm; tried after no response to cholesterol/simvastatin
From the text: Fourteen patients with ILVEN were recruited. Photographs were taken of all cases as a baseline. DNA was extracted directly from lymphocytes and from affected skin biopsy without culture, using standard methods. Where possible a second skin biopsy of affected skin was also obtained for primary keratinocyte culture and immortalization with HPV to establish a stable cell line. In a minority of cases a skin biopsy of normal skin was also taken for keratinocyte culture and immortalization. Histopathology of affected skin was obtained in all cases. Thirteen of the fourteen patients were treated with […]/2% simvastatin in Unguentum Merck, applied topically twice a day for a minimum period of three months in the first instance, and only applied to one designated area of affected skin, using the rest of the skin as an internal control. If there was no response in this time the treatment was stopped. Where there was a positive response the treatment has been continued, and extended gradually to different body areas.

## CC(C)CCC[C@@H](C)[C@H]1CC[C@H]2[C@@H]3CC=C4C[C@@H](O)CC[C@]4(C)[C@H]3CC[C@]12C [cholesterol, Cholesterol]
  Response to cholesterol only: no
